Where two headings read alike, the source gives them in different places.

In general, IC50 refers to the concentration that inhibits the measured activity by half. As usually defined, the melting point is the temperature of the solid-liquid transition.

For data set [1], the system named is HepG2 cells. Put plainly: MTT antiproliferative assay on HepG2. Format: cell-based. The settings on record: mean ± S.D. (n = 3), read-out: Cytotoxicity in IC50, HepG2. As to the method:
(§1) The antiproliferative activity of the thiophene compounds 3a–g, 4a–c, 6a, and 7a–d was evaluated by an in vitro MTT colorimetric assay on two oncogenic cell lines: liver (HepG2) and prostate (PC-3).
(§2) All cell lines (HepG2, PC-3, and nontumorigenic WI38) were supplied from VACSERA (Cairo, Egypt), cultured in DMEM (Invitrogen/Life Technologies, Waltham, MA, USA) at a density of 1.2–1.8 × 10,000 cells/well in a volume of 100 µL of the growth medium, and then incubated for 24 h, and an MTT assay was done as reported by.
On the technique in general: Formazan colour is commonly taken as a measure of viable cells.

The test system of data set [2] is PC-3 cells. Put plainly: MTT antiproliferative assay on PC-3. Format: cell-based. Conditions: mean ± S.D. (n = 3), read-out: Cytotoxicity in IC50, PC-3. Here is the method:
as §1, §2

In the case of `CN1CCc2sc3nc(-c4ccccc4)[nH]c(=O)c3c21` [3a, 5-Methyl-2-phenyl-3,5,6,7-tetrahydro-4H-pyrrolo[2′,3′:4,5]thieno[2,3-d]pyrimidin-4-one], the melting point was above 250 °C. The IC50 in data set [1] (Homo sapiens, HepG2, MTT assay) came out at 7.96 ± 0.37 µM. Also, the IC50 in data set [2] (Homo sapiens, PC-3, MTT assay) was 29.6 ± 1.66 µM.

Regarding `CN1CCc2sc3nc(-c4ccc(Br)cc4)[nH]c(=O)c3c21` [3c, 2-(4-Bromophenyl)-5-methyl-3,5,6,7-tetrahydro-4H-pyrrolo[2′,3′:4,5]thieno[2,3-d]pyrimidin-4-one], the melting point lay in the range of 113 to 114 °C. Moreover, the IC50 in data set [1] (Homo sapiens, HepG2, MTT assay) worked out at 107 ± 4.94 µM. The IC50 in data set [2] (Homo sapiens, PC-3, MTT assay) amounted to 10.5 ± 0.59 µM.

For the compound `CN1CCc2sc3nc(-c4ccc(F)cc4)[nH]c(=O)c3c21` [3d, 2-(4-Fluorophenyl)-5-methyl-3,5,6,7-tetrahydro-4H-pyrrolo[2′,3′:4,5]thieno[2,3-d]pyrimidin-4-one], the melting point lay within 108 to 110 °C. Moreover, the IC50 in data set [1] (Homo sapiens, HepG2, MTT assay) was 13.4 ± 0.62 µM. In addition, the IC50 in data set [2] (Homo sapiens, PC-3, MTT assay) turned out to be 19 ± 1.06 µM.

The compound `Cc1ccc(-c2nc3sc4c(c3c(=O)[nH]2)N(C)CC4)cc1` [3e, 5-Methyl-2-(p-tolyl)-3,5,6,7-tetrahydro-4H-pyrrolo[2′,3′:4,5]thieno[2,3-d]pyrimidin-4-one] gave a melting point of 155 to 156 °C. The IC50 in data set [1] (Homo sapiens, HepG2, MTT assay) amounted to 22.4 ± 1.03 µM. Besides, the concentration for half-maximal inhibition (IC50) in data set [2] (Homo sapiens, PC-3, MTT assay) turned out to be 39.7 ± 2.22 µM.

`COc1ccc(-c2nc3sc4c(c3c(=O)[nH]2)N(C)CC4)cc1` [3f, 2-(4-Methoxyphenyl)-5-methyl-3,5,6,7-tetrahydro-4H-pyrrolo[2′,3′:4,5]thieno[2,3-d]pyrimidin-4-one] came in with a melting point of 117 to 118 °C. Also, the IC50 in data set [1] (Homo sapiens, HepG2, MTT assay) came to 4.3 ± 0.2 µM. Besides, the IC50 in data set [1] (MTT assay) stood at 4.3 ± 0.2 µM. Besides, the half-inhibitory concentration (IC50) in data set [2] (Homo sapiens, PC-3, MTT assay) amounted to 7.47 ± 0.42 µM. For the same compound, the IC50 in data set [2] (MTT assay) worked out at 7.47 ± 0.42 µM.

Consider `COc1cc(-c2nc3sc4c(c3c(=O)[nH]2)N(C)CC4)cc(OC)c1OC` [3g, 5-Methyl-2-(3,4,5-trimethoxyphenyl)-3,5,6,7-tetrahydro-4H-pyrrolo[2′,3′:4,5]thieno[2,3-d]pyrimidin-4-one], for which the IC50 worked out at 3.77 ± 0.17 µM in data set [1] (Homo sapiens, HepG2, MTT assay) and 20.5 ± 1.15 µM in data set [2] (Homo sapiens, PC-3, MTT assay).

`CCOC(=O)c1c(NC(=S)NC)sc2c1N(C)CC2` [4a, Ethyl 4-methyl-2-(3-methylthioureido)-5,6-dihydro-4H-thieno[3,2-b]pyrrole-3-carboxylate] returned a melting point of 132 to 134 °C. Further, the IC50 in data set [1] (Homo sapiens, HepG2, MTT assay) worked out at 41.1 ± 1.9 µM. Moreover, the IC50 in data set [2] (Homo sapiens, PC-3, MTT assay) was determined as 1.84 ± 0.1 µM.

As to `CCNC(=S)Nc1sc2c(c1C(=O)OCC)N(C)CC2` [4b, Ethyl 2-(3-ethylthioureido)-4-methyl-5,6-dihydro-4H-thieno[3,2-b]pyrrole-3-carboxylate], the melting point fell in the range of 135 to 136 °C. Besides, the IC50 in data set [1] (Homo sapiens, HepG2, MTT assay) worked out at 34.2 ± 1.58 µM. Moreover, the IC50 in data set [2] (Homo sapiens, PC-3, MTT assay) was determined as 19.3 ± 1.08 µM.

Consider `CCOC(=O)c1c(/N=C(/NC)SCC(=O)Nc2ccc(Cl)cc2)sc2c1N(C)CC2` [6a, Ethyl (Z)-2-((((2-((4-chlorophenyl)amino)-2-oxoethyl)thio)(methylamino)methylene)amino)-4-methyl-5,6-dihydro-4H-thieno[3,2-b]pyrrole-3-carboxylate], for which the melting point lay within 140 to 141 °C. Further, in data set [1] (Homo sapiens, HepG2, MTT assay), the IC50 turned out to be 9.8 ± 0.45 µM. Further, the IC50 in data set [2] (Homo sapiens, PC-3, MTT assay) turned out to be 0.5 ± 0.03 µM.

For `CCOC(=O)c1c(/N=C(/Nc2cc(C)ccc2Cl)SCC(=O)Nc2ccc(Cl)cc2)sc2c1N(C)CC2` [7a, Ethyl (Z)-2-((((2-chloro-5-methylphenyl)amino)((2-((4-chlorophenyl)amino)-2-oxoethyl)thio)methylene)amino)-4-methyl-5,6-dihydro-4H-thieno[3,2-b]pyrrole-3-carboxylate], the melting point was 82 to 83 °C. Also, the IC50 in data set [1] (Homo sapiens, HepG2, MTT assay) stood at 27.3 ± 1.26 µM. Besides, in data set [2] (Homo sapiens, PC-3, MTT assay), the concentration for half-maximal inhibition (IC50) is 81.1 ± 4.54 µM.

Take `CCOC(=O)c1c(/N=C(/Nc2cc(C)ccc2Cl)SCC(=O)Nc2ccc(Br)cc2)sc2c1N(C)CC2` [7b, Ethyl (Z)-2-((((2-((4-bromophenyl)amino)-2-oxoethyl)thio)((2-chloro-5-methylphenyl)amino)methylene)amino)-4-methyl-5,6-dihydro-4H-thieno[3,2-b]pyrrole-3-carboxylate]: the melting point was above 250 °C. In data set [1] (Homo sapiens, HepG2, MTT assay), the IC50 was 2.48 ± 0.11 µM. Further, in data set [2] (Homo sapiens, PC-3, MTT assay), the half-inhibitory concentration (IC50) was found to be 26.6 ± 1.49 µM.

For the origin of these results see publication PMC9229165, “In Vitro Anticancer Activity Screening of Novel Fused Thiophene Derivatives as VEGFR-2/AKT Dual Inhibitors and Apoptosis Inducers” (Pharmaceuticals, 2022).
